Reference: patent US11166924B2, “N-methyl-d-aspartate receptor allosteric modulators and methods for their use” (Qingdao Primedicine Pharmaceutical Company, Ltd., priority 2016, dated 2021)

Tests used:
[1] = tested on: cortical neurons; test: NMDA-induced excitotoxicity (LDH release) in cortical neurons; type: cell-based, rat; settings: in the absence of NVP-AAM007; FIG. 16
Description: Lactate dehydrogenase (LDH) is a cytoplasmic enzyme that can convert nicotinamide adenine dinucleotide (NAD) into NADH (the reduced form). LDH is released from cells into culture medium when the plasma membrane integrity is compromised. Therefore, the amount of released LDH represents the degree of cell death. In this study, the extracellular LDH level was measured using an in vitro toxicology assay kit obtained from Sigma-Aldrich (no. TOX-7). The basis of this LDH assay is as follows: (1) LDH reduces NAD into NADH, (2) the resulting NADH is then used in the stoichiometric conversion of a tetrazolium dye, and (3) the resulting colored compound is measured by a spectrophotometric microplate reader at a wavelength of 490 nm. The cell death rate was expressed as a ratio (%) between the absorbance of the treated group and that of the control group.
Cortical cultures were treated with Npam43, and assessed for NMDA-induced excitotoxicity after 20-24 hrs by measuring lactate dehydrogenase (LDH) release. […] LDH release was measured using an in vitro toxicology assay kit obtained from Sigma-Aldrich (no. TOX-7). The cell death rate was expressed as a ratio (%) between the absorbance of the treated group and that of the control group.

[2] = tested on: cortical neurons; test: H2O2-induced cytotoxicity in cortical neurons; type: cell-based; settings: in the absence of NVP-AAM007; FIG. 17
[3] = tested on: GluN2A NMDARs; test: NMDAR EPSC in brain slices of wild-type and GluN2A knockout mice; set-up: species or system mouse; settings: FIG. 20
Description: Male and female wild-type or GluN2A KO mice 20-25-day old were anesthetized using Isoflurane and rapidly decapitated. Brains were removed and immersed for 30 sec in cold (2-4° C.) cutting solution containing: 92 mM NMDG, 2.5 mM KCl, 1.25 mM NaH2PO4, 30 mM NaHCO3, 20 mM HEPES, 4.5 mM D-glucose, 5 mM Na-ascorbate, 3 mM Na-pyruvate, 0.5 mM CaCl2, and 10 mM MgCl2. The brain was blocked in melted 3% agar-A (CAS #9002-18-0, Bio Basic Canada Inc.), then glued onto the slicing platform and sectioned coronally at 320 μm thickness with a vibratome (Leica VT 1000S) containing cold (2-4° C.) bubbled (95% O2/5% CO2) cutting solution. Sections that included the prefrontal cortex were transferred into continuously carbogenated pre-warmed (32-34° C.) cutting solution for a period of 12 min time for initial recovery. […]
A brain slice was transferred onto a recording chamber on an upright Nikon FN1 microscope and the chamber was continuously perfused with 32° C. carbogenated aCSF recording solution containing: 121.85 mM NaCl, 2.5 mM KCl, 1.2 mM NaH2PO4, 24 mM NaHCO3, 12.5 mM D-glucose, 5 mM Na-ascorbate, 3 mM Na-pyruvate, 2 mM CaCl2, 0.1 mM MgCl2. Pyramidal neurons were identified in layer V of the prefrontal cortex via video monitored infra-red differential interference contrast illumination microscopy using a CFI APO 40× W NIR objective (0.80 numerical aperture, 3.5 mm working distance). […]

For CCOc1cc(Cl)c(Cl)c(/C=N/NC(=O)c2ccccc2Br)c1O [Npam43, (E)-2-bromo-N′-(2,3-dichloro-5-ethoxy-6-hydroxybenzylidene)benzohydrazide], the NMDA-induced excitotoxicity [1] was “reduced”, the “H2O2-induced non-NMDAR dependent cytotoxicity” value [2] was “reduced” and the “Effect on NMDAR EPSC, GluN2A KO mice” value ([3]; brain slices of GluN2A KO mice) was “no effect”. For the same compound, the “Effect on NMDAR EPSC, WT mice” value ([3]; brain slices of wild-type mice) was “clear potentiation of NMDAR EPSC”.
